Biological target: T1, eIF2Bγ in the eIF2Bγε core complex (γ2ε2) (Saccharomyces cerevisiae, UniProt P09032)
T1 construct: gene GCD1; γε core co-overexpressed in yeast, γ-subunit C-terminally FLAG-tagged (GCD1-FLAG2-His6), anti-FLAG purified; GTP adduct seen on dissociated γ; with Translation initiation factor eIF2B subunit epsilon
T1 sequence (P09032 1-578): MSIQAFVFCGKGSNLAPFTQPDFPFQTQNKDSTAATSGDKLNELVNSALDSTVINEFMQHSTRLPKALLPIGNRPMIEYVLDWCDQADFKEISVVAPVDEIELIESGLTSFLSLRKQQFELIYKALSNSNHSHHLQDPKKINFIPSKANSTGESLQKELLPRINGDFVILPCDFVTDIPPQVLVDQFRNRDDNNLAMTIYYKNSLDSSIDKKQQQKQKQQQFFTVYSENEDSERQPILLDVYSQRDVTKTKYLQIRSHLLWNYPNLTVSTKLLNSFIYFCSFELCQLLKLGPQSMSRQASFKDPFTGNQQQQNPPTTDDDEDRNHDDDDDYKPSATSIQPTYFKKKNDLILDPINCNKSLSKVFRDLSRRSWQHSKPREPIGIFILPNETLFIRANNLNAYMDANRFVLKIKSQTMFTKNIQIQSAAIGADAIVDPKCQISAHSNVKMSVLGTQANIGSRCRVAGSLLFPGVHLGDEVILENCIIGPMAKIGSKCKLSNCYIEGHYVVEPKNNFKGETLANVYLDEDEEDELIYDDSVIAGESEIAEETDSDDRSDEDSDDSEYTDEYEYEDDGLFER
T1 sequence (P32501 1-712 partner): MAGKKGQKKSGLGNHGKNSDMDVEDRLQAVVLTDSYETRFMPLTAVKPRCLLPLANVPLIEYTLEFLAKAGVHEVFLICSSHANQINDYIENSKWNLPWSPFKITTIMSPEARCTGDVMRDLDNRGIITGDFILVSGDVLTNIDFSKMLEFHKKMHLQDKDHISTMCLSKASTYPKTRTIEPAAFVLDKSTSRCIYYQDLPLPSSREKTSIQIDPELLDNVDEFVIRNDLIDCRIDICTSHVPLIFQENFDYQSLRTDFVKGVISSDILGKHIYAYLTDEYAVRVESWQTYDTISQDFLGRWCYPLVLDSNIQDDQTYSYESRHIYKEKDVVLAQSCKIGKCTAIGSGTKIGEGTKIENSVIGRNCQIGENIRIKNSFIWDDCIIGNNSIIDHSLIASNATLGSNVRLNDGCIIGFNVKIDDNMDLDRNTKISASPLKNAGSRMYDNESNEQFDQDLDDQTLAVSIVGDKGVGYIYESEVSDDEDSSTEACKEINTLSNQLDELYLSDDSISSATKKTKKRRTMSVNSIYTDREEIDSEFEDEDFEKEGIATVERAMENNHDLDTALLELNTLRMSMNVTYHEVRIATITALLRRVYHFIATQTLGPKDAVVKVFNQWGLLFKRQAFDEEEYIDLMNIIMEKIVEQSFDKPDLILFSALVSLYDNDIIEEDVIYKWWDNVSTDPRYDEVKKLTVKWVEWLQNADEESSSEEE
Experiment: photo-cross-linking and native nano-electrospray MS
Format: binding
Conditions: 10 mM 6-Thio-GTP; UV 365 nm 5 min on ice; 500 mM ammonium acetate; covalent (photo-cross-link); adduct on γ-subunit

**Q.** For `Nc1nc(=S)c2ncn([C@@H]3O[C@H](COP(=O)(O)OP(=O)(O)OP(=O)(O)O)[C@@H](O)[C@H]3O)c2[nH]1` [6-Thio-GTP], which “photo-cross-linking and native nano-electrospray MS” value is on record?
**A.** After incubation with 6-Thio-GTP and ultraviolet irradiation, the intensity of the GTP-bound population
